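Where inhibition never reached the appropriate level, the endpoint shown equals the highest concentration tested. Otherwise, values were interpolated linearly from a five-concentration, 48-hour dose response in 96-well plates. The concentration for 50% growth inhibition is given as GI50.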 Calls of active or inactive are those of the source. No stated cut-off is given here; in the data, active = GI50 up to about 1.1 µM and inactive = higher.
Columns and labels:
Assay in all cases: growth of human tumour cells (NCI), 48 h
[1] = test system: M14
[2] = test system: MOLT-4
[3] = test system: Hs-578T
[4] = test system: CAKI-1
[5] = test system: SW-620
[6] = test system: SNB-75
[7] = test system: LXFL 529
[8] = test system: DU-145
[9] = test system: SK-MEL-2
[10] = test system: MCF7
[11] = test system: CCRF-CEM
[12] = test system: NCI/ADR-RES
[13] = test system: NCI-H23
[14] = test system: U-251
[15] = test system: OVCAR-8
[16] = test system: OVCAR-5
[17] = test system: A549
[18] = test system: NCI-H522
[19] = test system: NCI-H226
[20] = test system: EKVX

| SMILES | GI50 [1] | GI50 [2] | GI50 [3] | GI50 [4] | GI50 [5] | GI50 [6] | GI50 [7] | GI50 [8] | GI50 [9] | GI50 [10] | GI50 [11] | GI50 [12] | GI50 [13] | GI50 [14] | GI50 [15] | GI50 [16] | GI50 [17] | GI50 [18] | GI50 [19] | GI50 [20] |
| --- | --- | --- | --- | --- | --- | --- | --- | --- | --- | --- | --- | --- | --- | --- | --- | --- | --- | --- | --- | --- |
| COc1ccc2nc(C)cc(NCCCCCCCCCNc3cc(C)nc4ccc(OC)cc34)c2c1 | 1.95 µM (inactive) | 1.29 µM (inactive) | 1.64 µM (inactive) | 6.67 µM (inactive) | 0.957 µM (active) | 4.14 µM (inactive) | 1.17 µM (inactive) | 6.07 µM (inactive) | 3.79 µM (inactive) | 1.21 µM (inactive) | 1.27 µM (inactive) | 5.43 µM (inactive) | 1.73 µM (inactive) | 2.07 µM (inactive) | 0.527 µM (active) | 2.55 µM (inactive) | 1.5 µM (inactive) | 0.834 µM (active) | 6.18 µM (inactive) | 3.4 µM (inactive) |
| COc1ccc(NC(=O)CC(=O)N/N=C/c2ccc(N(CCC#N)S(=O)(=O)c3ccccc3)cc2)cc1 | > 100 µM (inactive) | > 100 µM (inactive) |  | > 100 µM (inactive) | > 100 µM (inactive) | > 10 µM (inactive) | > 100 µM (inactive) |  | > 100 µM (inactive) |  | > 100 µM (inactive) |  | > 100 µM (inactive) | > 100 µM (inactive) | > 100 µM (inactive) | > 100 µM (inactive) | > 100 µM (inactive) | > 100 µM (inactive) | > 100 µM (inactive) | > 100 µM (inactive) |
| Cc1cccc2c(=O)c([Se]c3coc4c(C)cccc4c3=O)coc12 | 16.4 µM (inactive) | 38.6 µM (inactive) |  | 20.7 µM (inactive) | 20.4 µM (inactive) | 16.7 µM (inactive) | 14.6 µM (inactive) |  | 18.5 µM (inactive) |  | 31.4 µM (inactive) |  | 17.2 µM (inactive) | 11.2 µM (inactive) | 15.9 µM (inactive) | 18.9 µM (inactive) | 7.71 µM (inactive) | 31.3 µM (inactive) | 16.9 µM (inactive) | 17.3 µM (inactive) |
| O=C1c2ccccc2C2(O)Oc3cccc(O)c3C12O (configuration not stated) | > 100 µM (inactive) | > 100 µM (inactive) |  | > 100 µM (inactive) | > 100 µM (inactive) | > 100 µM (inactive) | > 100 µM (inactive) |  | > 100 µM (inactive) |  | > 100 µM (inactive) |  | > 100 µM (inactive) | > 100 µM (inactive) | > 100 µM (inactive) | > 100 µM (inactive) | > 100 µM (inactive) | > 100 µM (inactive) | > 100 µM (inactive) | > 100 µM (inactive) |
| COc1ccccc1NC(=O)c1nc2ccc([N+](=O)[O-])cc2nc1C | > 100 µM (inactive) | > 100 µM (inactive) |  | > 100 µM (inactive) | > 100 µM (inactive) | 65.3 µM (inactive) | > 100 µM (inactive) |  | > 100 µM (inactive) |  | > 100 µM (inactive) |  | > 100 µM (inactive) | > 100 µM (inactive) | > 100 µM (inactive) | > 100 µM (inactive) | > 100 µM (inactive) | 57.8 µM (inactive) | 99.3 µM (inactive) | > 100 µM (inactive) |
| Cc1cccc(C(C)C)c1NC(=O)CC1C(=O)Nc2ccccc2S1(=O)=O (configuration not stated) | 15.5 µM (inactive) | 0.408 µM (active) |  | 6.58 µM (inactive) | 7.03 µM (inactive) | 21.5 µM (inactive) | 16.7 µM (inactive) |  | > 38.3 µM (inactive) |  | 7.24 µM (inactive) |  | 9.06 µM (inactive) | 24.2 µM (inactive) | 14.4 µM (inactive) | 39.7 µM (inactive) | 16.8 µM (inactive) | 7.01 µM (inactive) | 18.7 µM (inactive) | 16 µM (inactive) |
| COc1ccccc1NC(=O)C(=O)C(c1cnc2ccc([N+](=O)[O-])cc2n1)[N+](=O)[O-] (configuration not stated) | 78.7 µM (inactive) | 32.8 µM (inactive) |  | > 100 µM (inactive) | > 100 µM (inactive) | > 100 µM (inactive) | 75 µM (inactive) |  | > 100 µM (inactive) |  | 26 µM (inactive) |  | > 100 µM (inactive) | > 100 µM (inactive) | > 100 µM (inactive) | > 100 µM (inactive) | > 100 µM (inactive) | 8.71 µM (inactive) | > 100 µM (inactive) | > 100 µM (inactive) |
| COC(=O)C1=C(O)C(O)=C(C(=O)OC)C1 | > 100 µM (inactive) | > 100 µM (inactive) |  | > 100 µM (inactive) | > 100 µM (inactive) | > 100 µM (inactive) | > 100 µM (inactive) |  | > 100 µM (inactive) |  | > 100 µM (inactive) |  | > 100 µM (inactive) | > 100 µM (inactive) | > 100 µM (inactive) | > 100 µM (inactive) | > 100 µM (inactive) | > 100 µM (inactive) | > 100 µM (inactive) | > 100 µM (inactive) |
| Cc1cc2nc3ccc(N(C)C)cc3[s+]c2cc1N [TOLONIUM CHLORIDE] | 2.24 µM (inactive) | 2.69 µM (inactive) | 5.12 µM (inactive) | 23.5 µM (inactive) | 2.86 µM (inactive) | 11 µM (inactive) | 0.769 µM (active) | 15.7 µM (inactive) | 3.5 µM (inactive) | 2.3 µM (inactive) | 1.16 µM (inactive) | 2.26 µM (inactive) | 2.21 µM (inactive) | 3.17 µM (inactive) | 2.16 µM (inactive) | 9.73 µM (inactive) | 3.22 µM (inactive) | 2.62 µM (inactive) | 8.22 µM (inactive) | 4.48 µM (inactive) |
